Source: US20100016228A1, “TRUNCATED BARD1 PROTEIN, AND ITS DIAGNOSTIC AND THERAPEUTIC USES” (Ayanda Biosystems SA, priority 2000, published 2010)
Where two headings read alike, the source gives them in different places. Non-standard residues stand in square brackets, D forms with d. Residues, ends and D or L forms follow the SMILES beside them. Nle = CCCC[C@H](N)C(=O)O

What was measured:
[1] = test system: human BARD1 protein (SEQ ID NO:1); test: in vitro cleavage of 35S-labeled human BARD1 by NaB-treated SW48 cell extracts, inhibition by protease inhibitors; format: biochemical
Description: (§1) The human BARD1 protein (SEQ ID NO:1), labeled with ^35S-methionine, was transcribed and translated in vitro using the TNT coupled reticulocytes lysate system kit (Promega). 1 μg of plasmid was used in a reaction medium for the transcription and the translation, containing 4 μl of ^35S-methionine (NEN). For the in vitro cleavage, 2 μl of transcription/translation products were incubated with apoptotic or nonapoptotic cell extracts prepared in a DIV buffer (20 mM HEPES. PH 7.5, 10 mM NaCl, 1.5 mM MgCl2, 0.1% SB14, 0.5 mM PMSF) at 37° C. for the period of time indicated. […] Inhibition of the cleavage was evaluated by adding caspase inhibitors or a proteasome inhibitor (lactacystine) (Calbiochem) or the calpain inhibitor I (ALLnL) (Chemicon).
To define the proteolytic activity responsible for the cleavage of hBARD1 (SEQ ID NO:1), various preparations of cell extracts from SW48 cells treated with NAB were tested. It appears that both the nuclear preparations and the mitochondrial preparations were capable of cleaving hBARD1 (SEQ ID NO:1). The supernatant at 13,000×g of the organelle preparation had no effect.

[2] = test system: SW48 cells; test: NaB treatment of SW48 cells: induction of BARD1 and calpastatin cleavage; format: cell-based, human; details: SW48 cells treated with NaB
Description: Apoptosis was induced by treatment with sodium butyrate (NaB). The cells at different stages of confluence were treated in complete medium at 37° C. and with 5 mM of NaB (Sigma) for various periods of time. The apoptotic bodies were purified as previously described (Gautier et al., 1999):
as §1
The SW48 cells were arrested in G0 by contact inhibition in 175 cm^2 flasks. After confluencing for 3 days, the cells were split 1:10 in 75 cm^2 flasks at a concentration of 3×10^6 cells per flask. 12, 20, 28, 36 and 44 hours after seeding, the cells were treated with 5 mM of NaB for 24 hours and collected. To determine the cell cycle distribution at each time, the content of each flask was subjected to trypsinization, washed three times in 10 ml of ice-cold PBS, and fixed with 1 ml of ice-cold 70% ethanol, added dropwise, for 16 hours at −20° C. The fixed cells were pelletted, resuspended in 500 μl of PC buffer (96% 0.2M Na2HPO4, 4% 15 0.1M citric acid, pH 7.8) and left at ambient temperature for 30 minutes. They were then washed and resuspended in 500 μl of propidium iodide in a staining solution (PBS, 0.12% Triton X-100, 0.12 mM EDTA, 100 μg/ml RNase A), incubated for 30 minutes at 37° C. and analyzed on a FACScan (flow cytometer) (Beckton Dickinson). […]

[3] = test system: caspases 3, 6 and 8; test: caspase activity in extracts of NaB-treated SW48 cells (fluorogenic substrates); format: cell-based, human; details: during NaB treatment of SW48 cells; caspase 3 most active after 6 and 12 hours
Description: For assaying the caspase activity, 10 μg of cell extracts were diluted in 5 μl of DIV buffer:
Acetyl-Asp-Glu-Val-Asp-7-amino-4-methylcoumarin (Ac-DEVD-AMC), acetyl-Val-Glu-Ile-Asp-7-amino-4-methylcoumarin (Ac-VEID-AMC) and […] (Bachem), substrates for caspases 3, 6 and 8, respectively, were added at a final concentration of 50 μM. The cleavage activity was controlled on Fluorolite 1000 (Dynatech laboratories).

[4] = test system: PROb tumors; test: vaccination of BDIX rats, then subcutaneous PROb tumor challenge; format: in vivo; details: three weekly intraplantar injections of 100 μg in complete Freund's adjuvant; PROb cells s.c. two weeks after final immunization; versus control protein (fucosyl transferase)
Description: Two groups of BDIX rats were given three weekly intraplantar injections of 100 μg of F1 fragment (amino acids 460-611) of BARD1 (SEQ ID NO:9) or of a controlled protein (fucosyl transferase) purified under the same conditions as the F1 fragment. The proteins were emulsified in 100 μl of complete Freund's adjuvant. Two weeks after the final immunization, the rat colon tumor cells (PROb, 50×10^3/rat) were injected subcutaneously and the volume of the PROb tumors was estimated.

CCCC[C@@H](C=O)NC(=O)[C@H](CC(C)C)NC(=O)[C@H](CC(C)C)NC(C)=O [ALLnL, N-acetyl-leu-leu-norleucinal] (Ac-Leu-Leu-[Nle]-aldehyde)
inhibition of the hydrolysis of hBARD1 [1]: inhibited
inhibition of the hydrolysis of hBARD1 ([1]; dose-dependent manner): strongly inhibited

O=C(O)CN(CCOCCOCCN(CC(=O)O)CC(=O)O)CC(=O)O [EGTA]
inhibition of the hydrolysis of hBARD1 [1]: inhibited
inhibition of the hydrolysis of hBARD1 ([1]; dose-dependent manner): strongly inhibited

CCCC(=O)[O-].[Na+] [NaB, sodium butyrate]
treatment time after which BARD1 cleavage was virtually complete [2]: ~12 h
treatment time after which calpastatin was completely cleaved [2]: 12 h
treatment time after which the p67 protein appeared [2]: 4 h
activities of caspases 3, 6 and 8 [3]: gradually increased

CC(=O)N[C@@H](CSC(=O)[C@]1([C@@H](O)C(C)C)NC(=O)[C@H](C)[C@@H]1O)C(=O)O [lactacystine]
blocking of the proteolysis of hBARD1 ([1]; even at concentrations of 100 μm): does not block

benzyloxycarbonyl-Asp-Glu-Val-Asp-fluoromethylketone [Z-DEVD-frnk]
inhibition of the hydrolysis of hBARD1 [1]: no effect

benzyloxycarbonyl-Val-Ala-Asp-fluoromethylketone [ZVAD-fmk]
inhibition of the hydrolysis of hBARD1 ([1]; high concentration (100 μM)): slightly inhibited

benzyloxycarbonyl-Val-Glu-Ile-Asp-fluoromethyl ketone [Z-VEID-fmk]
inhibition of the hydrolysis of hBARD1 [1]: no effect

B1: BARD1 fragment: F1 fragment (amino acids 460-611) of rat BARD1 with N-terminal 6xHis tag, expressed in E. coli (protein, listed as Rattus norvegicus)
chain: SHGHLKIVELLLQHNALVNTTGYHNDSPLHDAAKNGHIDIVKVLLSHGASRNAVNIFGERPVDYTDAENIRSLLLLPEKTDSFSTSQCSVQVNTGQRKSGPLVLIGSGLSSQQQKLLSKLETVLKAKKCAEFDNTVTHVIVPDEEAQSTLKC
modifications: N-terminal 6xHis tag
notes: F1 fragment (amino acids 460-611) of rat BARD1 with N-terminal 6xHis tag, expressed in E. coli
PROb tumor growth (tumor volume) [4]: slowing down of tumor growth
